Biological target: T1, Nav1.7 (or SCN9A) channel (Homo sapiens, UniProt Q15858)
T1 construct: expressed in transfected cells
Assay: Nav1.7 PatchXpress 7000 automated electrophysiology assay (HEK cells stably expressing hSCN9A)
Assay type: cell-based
Conditions: voltage-clamped at V1/2 of inactivation, read-out: Nav1.7 EIC50
In short: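 Automated whole-cell clamp (PatchXpress) of HEK cells stably expressing hSCN9A, at 22-24 °C, in extracellular buffer at pH 7.4. Cells were held at the measured V1/2 of inactivation, then stepped to 0 mV for 20 ms. Single-concentration % inhibition gave EIC50 = concentration × (100 − %inhibition)/%inhibition, excluding <20% or >80%.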

T1 sequence (Q15858 whole entry): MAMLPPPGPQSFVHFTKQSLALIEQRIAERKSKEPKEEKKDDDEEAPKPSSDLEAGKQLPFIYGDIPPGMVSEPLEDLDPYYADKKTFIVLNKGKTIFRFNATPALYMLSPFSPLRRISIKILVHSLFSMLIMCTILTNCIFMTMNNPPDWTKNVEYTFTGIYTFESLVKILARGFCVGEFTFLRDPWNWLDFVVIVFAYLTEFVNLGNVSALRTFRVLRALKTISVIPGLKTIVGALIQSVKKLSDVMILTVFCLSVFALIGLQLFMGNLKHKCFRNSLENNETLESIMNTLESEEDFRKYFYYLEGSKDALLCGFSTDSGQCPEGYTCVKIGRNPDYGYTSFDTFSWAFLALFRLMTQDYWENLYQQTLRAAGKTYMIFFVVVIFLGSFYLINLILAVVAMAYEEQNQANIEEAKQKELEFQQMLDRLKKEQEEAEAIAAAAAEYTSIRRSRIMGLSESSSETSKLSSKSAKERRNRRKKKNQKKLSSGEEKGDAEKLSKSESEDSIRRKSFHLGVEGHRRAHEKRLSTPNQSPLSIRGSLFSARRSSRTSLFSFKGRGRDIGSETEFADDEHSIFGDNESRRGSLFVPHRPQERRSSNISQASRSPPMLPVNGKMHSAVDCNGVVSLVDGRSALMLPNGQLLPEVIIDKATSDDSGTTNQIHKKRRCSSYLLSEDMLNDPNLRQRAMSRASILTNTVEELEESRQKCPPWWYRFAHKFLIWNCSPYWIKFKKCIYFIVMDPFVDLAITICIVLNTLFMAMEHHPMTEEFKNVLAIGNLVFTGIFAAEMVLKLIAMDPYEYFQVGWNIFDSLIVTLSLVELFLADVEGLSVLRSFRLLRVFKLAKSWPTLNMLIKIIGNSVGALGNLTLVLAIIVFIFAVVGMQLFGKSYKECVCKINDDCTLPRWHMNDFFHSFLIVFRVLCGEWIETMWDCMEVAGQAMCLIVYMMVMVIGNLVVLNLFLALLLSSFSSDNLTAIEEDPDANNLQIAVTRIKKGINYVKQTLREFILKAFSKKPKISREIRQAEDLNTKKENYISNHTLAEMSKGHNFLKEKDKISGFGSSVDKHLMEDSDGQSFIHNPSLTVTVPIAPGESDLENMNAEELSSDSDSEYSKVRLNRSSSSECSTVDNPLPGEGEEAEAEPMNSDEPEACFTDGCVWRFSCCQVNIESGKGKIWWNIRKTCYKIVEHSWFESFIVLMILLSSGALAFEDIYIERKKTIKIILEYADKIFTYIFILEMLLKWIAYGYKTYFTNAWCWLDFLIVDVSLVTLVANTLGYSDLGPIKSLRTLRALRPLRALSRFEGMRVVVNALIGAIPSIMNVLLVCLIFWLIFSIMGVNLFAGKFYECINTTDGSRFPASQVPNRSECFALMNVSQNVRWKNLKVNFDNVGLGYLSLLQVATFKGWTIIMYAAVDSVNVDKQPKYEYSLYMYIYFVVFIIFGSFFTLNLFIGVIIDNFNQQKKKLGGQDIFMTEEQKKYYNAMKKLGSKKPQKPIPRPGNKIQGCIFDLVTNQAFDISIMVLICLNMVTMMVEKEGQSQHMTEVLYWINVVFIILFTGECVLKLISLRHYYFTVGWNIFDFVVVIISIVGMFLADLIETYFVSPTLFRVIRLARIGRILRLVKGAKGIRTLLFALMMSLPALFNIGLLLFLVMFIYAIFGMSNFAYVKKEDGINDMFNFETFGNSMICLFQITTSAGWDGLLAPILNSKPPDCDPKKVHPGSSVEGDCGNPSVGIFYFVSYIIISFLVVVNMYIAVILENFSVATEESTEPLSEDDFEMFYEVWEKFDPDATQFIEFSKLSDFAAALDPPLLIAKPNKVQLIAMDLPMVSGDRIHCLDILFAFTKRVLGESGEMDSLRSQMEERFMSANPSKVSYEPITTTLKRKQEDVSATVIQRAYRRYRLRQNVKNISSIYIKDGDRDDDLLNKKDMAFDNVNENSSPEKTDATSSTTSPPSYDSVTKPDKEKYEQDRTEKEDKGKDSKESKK

Structure (SMILES) | IC50 [µM]
CS(=O)(=O)NC(=O)c1cc(F)c(Oc2cc(C(F)(F)F)ccc2Cl)cc1F [Example 121, 4-[2-chloro-5-(trifluoromethyl)phenoxy]-2,5-difluoro-N-(methylsulfonyl)benzamide] | > 1
COc1cc(Cl)ccc1Oc1ccc(C(=O)NS(C)(=O)=O)cc1F [Example 65, 4-(4-chloro-2-methoxyphenoxy)-3-fluoro-N-(methylsulfonyl)benzamide] | > 1
O=C(NS(=O)(=O)c1ccccc1)c1cc(F)c(Oc2ccc(Cl)c(C(F)(F)F)c2)cc1F [Example 57, 4-[4-chloro-3-(trifluoromethyl)phenoxy]-2,5-difluoro-N-(phenylsulfonyl)benzamide] | 0.92
CS(=O)(=O)NC(=O)c1ccc(Oc2ccc(Cl)c(C(F)(F)F)c2)c(Cl)c1F [Example 320, 3-chloro-4-(4-chloro-3-(trifluoromethyl)phenoxy)-2-fluoro-N-(methylsulfonyl)benzamide] | 1.8
COc1cc(Oc2ccc(Cl)c(C)c2)ccc1C(=O)NS(C)(=O)=O [Example 231, 4-(4-chloro-3-methylphenoxy)-2-methoxy-N-(methylsulfonyl)benzamide] | 3.9
Cc1ccc(Cl)cc1Oc1ccc(C(=O)NS(C)(=O)=O)cc1 [Example 177, 4-(5-chloro-2-methylphenoxy)-N-(methylsulfonyl)benzamide] | 16
Cc1cc(C)cc(Oc2ccc(C(=O)NS(C)(=O)=O)cc2)c1 [Example 174, 4-(3,5-dimethylphenoxy)-N-(methylsulfonyl)benzamide] | 20
CS(=O)(=O)NC(=O)c1ccc(Oc2ccc(OCc3ccccc3)cc2)cc1 [Example 178, 4-[4-(benzyloxy)phenoxy]-N-(methylsulfonyl)benzamide] | 1.3
COc1cc(C(=O)NS(C)(=O)=O)ccc1Cc1ccc(Cl)c(Cl)c1 [Example 322, 4-(3,4-dichlorobenzyl)-3-methoxy-N-(methylsulfonyl)benzamide] | > 3
CS(=O)(=O)NC(=O)c1cc(F)c(Oc2c(F)cc(F)cc2F)cc1F [Example 94, 2,5-difluoro-N-(methylsulfonyl)-4-(2,4,6-trifluorophenoxy)benzamide] | > 3
CC(C)S(=O)(=O)NC(=O)c1ccc(Oc2ccc(Cl)c(C(F)(F)F)c2)cc1 [Example 76, 4-(4-chloro-3-(trifluoromethyl)phenoxy)-N-(isopropylsulfonyl)benzamide] | 0.85
Cc1ccc(F)cc1Oc1ccc(C(=O)NS(C)(=O)=O)cc1 [Example 179, 4-(5-fluoro-2-methylphenoxy)-N-(methylsulfonyl)benzamide] | > 10
CS(=O)(=O)NC(=O)c1ccc(Cc2ccc(Cl)c(Cl)c2)cc1 [Example 315, 4-(3,4-Dichlorobenzyl)-N-(methylsulfonyl)benzamide] | 1.5
COc1cc(C)cc(Oc2ccc(C(=O)NS(C)(=O)=O)cc2)c1 [Example 204, 4-(3-methoxy-5-methylphenoxy)-N-(methylsulfonyl)benzamide] | 21
COc1cc(C#N)ccc1Oc1cc(F)c(C(=O)NS(C)(=O)=O)cc1F [Example 135, 4-(4-cyano-2-methoxyphenoxy)-2,5-difluoro-N-(methylsulfonyl)benzamide] | > 3
Cc1cccc(C)c1Oc1ccc(C(=O)NS(C)(=O)=O)cc1 [Example 193, 4-(2,6-dimethylphenoxy)-N-(methylsulfonyl)benzamide] | > 10
CS(=O)(=O)NC(=O)c1ccc(Oc2ccc(F)cc2)cc1 [Example 309, 4-(4-fluorophenoxy)-N-(methylsulfonyl)benzamide] | 18

Structure (SMILES) | IC50 [µM]
CS(=O)(=O)NC(=O)c1cc(Cl)c(Oc2ccc(F)cc2)cc1F [Example 296, 5-chloro-2-fluoro-4-(4-fluorophenoxy)-N-(methylsulfonyl)benzamide] | 0.39
CS(=O)(=O)NC(=O)c1c(F)cc(Oc2ccc(Cl)c(C(F)(F)F)c2)c(F)c1F [Example 32, 4-(4-chloro-3-(trifluoromethyl)phenoxy)-2,3,6-trifluoro-N-(methylsulfonyl)benzamide] | > 1
CS(=O)(=O)NC(=O)c1cc(Cl)c(Oc2cccc3ccccc23)cc1F [Example 287, 5-chloro-2-fluoro-N-(methylsulfonyl)-4-(1-naphthyloxy)benzamide] | 2.1
Cc1cc(Cl)ccc1Oc1ccc(C(=O)NS(C)(=O)=O)cc1 [Example 206, 4-(4-chloro-2-methylphenoxy)-N-(methylsulfonyl)benzamide] | 18
CS(=O)(=O)NC(=O)c1ccc(Oc2ccc(Cl)cc2)cc1 [Example 24, 4-(4-chlorophenoxy)-N-(methylsulfonyl)benzamide] | 5.7
Cc1ccccc1Oc1ccc(C(=O)NS(C)(=O)=O)cc1 [Example 191, 4-(2-methylphenoxy)-N-(methylsulfonyl)benzamide] | > 10
Cc1cccc(Oc2ccc(C(=O)NS(C)(=O)=O)cc2Cl)c1 [Example 250, 3-chloro-4-(3-methylphenoxy)-N-(methylsulfonyl)benzamide] | 1.4
CS(=O)(=O)NC(=O)c1cc(F)c(Oc2ccccc2C(F)(F)F)cc1F [Example 113, 2,5-difluoro-N-(methylsulfonyl)-4-[2-(trifluoromethyl)phenoxy]benzamide] | > 3
CCS(=O)(=O)NC(=O)c1ccc(Oc2ccc(Cl)cc2)cc1 [Example 23, 4-(4-chlorophenoxy)-N-(ethylsulfonyl)benzamide] | 3.4
CS(=O)(=O)NC(=O)c1cc(F)c(Oc2ccc(Cl)cc2OC(F)(F)F)cc1F [Example 73, 4-[4-chloro-2-(trifluoromethoxy)phenoxy]-2,5-difluoro-N-(methylsulfonyl)benzamide] | 0.71
CCc1cc(C(=O)NS(C)(=O)=O)ccc1Oc1ccc(Cl)c(Cl)c1 [Example 4, 4-(3,4-Dichlorophenoxy)-3-ethyl-N-(methylsulfonyl)benzamide] | 0.25
CS(=O)(=O)NC(=O)c1ccc(Oc2ccc(C#N)c(C#N)c2)cc1 [Example 25, 4-(3,4-dicyanophenoxy)-N-(methylsulfonyl)benzamide] | > 10
CCc1cc(F)ccc1Oc1ccc(C(=O)NS(C)(=O)=O)cc1F [Example 20, 4-(2-ethyl-4-fluorophenoxy)-3-fluoro-N-(methylsulfonyl)benzamide] | 5.4
COc1cc(OC(F)(F)F)ccc1Oc1cc(F)c(C(=O)NS(C)(=O)=O)cc1F [Example 72, 2,5-difluoro-4-[2-methoxy-4-(trifluoromethoxy)phenoxy]-N-(methylsulfonyl)benzamide] | > 1
CS(=O)(=O)NC(=O)c1ccc(Oc2ccc(Cl)cc2)c(F)c1 [Example 229, 4-(4-chlorophenoxy)-3-fluoro-N-(methylsulfonyl)benzamide] | 1.2
COc1cccc(Oc2ccc(C(=O)NS(C)(=O)=O)cc2)c1 [Example 161, 4-(3-methoxyphenoxy)-N-(methylsulfonyl)benzamide] | 28

Other lines, results leading:

IC50 [µM] | Structure (SMILES)
> 3 | COc1cc(F)cc(Oc2cc(F)c(C(=O)NS(C)(=O)=O)cc2F)c1 [Example 92, 2,5-difluoro-4-(3-fluoro-5-methoxyphenoxy)-N-(methylsulfonyl)benzamide]
> 3 | CS(=O)(=O)NC(=O)c1cc(F)c(Oc2c(F)cccc2F)cc1F [Example 96, 4-(2,6-difluorophenoxy)-2,5-difluoro-N-(methylsulfonyl)benzamide]
> 3 | CS(=O)(=O)NC(=O)c1cc(F)c(Oc2cccc(Cl)c2)cc1F [Example 156, 4-(3-chlorophenoxy)-2,5-difluoro-N-(methylsulfonyl)benzamide]
3.7 | Cc1cc(Cl)ccc1Oc1cc(F)c(C(=O)NS(C)(=O)=O)cc1F [Example 102, 4-(4-chloro-2-methylphenoxy)-2,5-difluoro-N-(methylsulfonyl)benzamide]
> 3 | CS(=O)(=O)NC(=O)c1cc(F)c(Oc2cc(F)ccc2F)cc1F [Example 89, 4-(2,5-difluorophenoxy)-2,5-difluoro-N-(methylsulfonyl)benzamide]
1.5 | CS(=O)(=O)NC(=O)c1cc(F)c(Oc2cc(Cl)cc(Cl)c2)cc1F [Example 101, 4-(3,5-dichlorophenoxy)-2,5-difluoro-N-(methylsulfonyl)benzamide]
> 3 | Cc1ccc(F)cc1Oc1cc(F)c(C(=O)NS(C)(=O)=O)cc1F [Example 115, 2,5-difluoro-4-(5-fluoro-2-methylphenoxy)-N-(methylsulfonyl)benzamide]
> 1 | Cc1ccc(Cl)c(Oc2cc(F)c(C(=O)NS(C)(=O)=O)cc2F)c1 [Example 110, 4-(2-chloro-5-methylphenoxy)-2,5-difluoro-N-(methylsulfonyl)benzamide]
3.8 | CS(=O)(=O)NC(=O)c1cc(F)c(Oc2ccc(F)cc2)cc1F [Example 131, 2,5-difluoro-4-(4-fluorophenoxy)-N-(methylsulfonyl)benzamide]
> 3 | CCc1cccc(Oc2cc(F)c(C(=O)NS(C)(=O)=O)cc2F)c1 [Example 147, 4-(3-ethylphenoxy)-2,5-difluoro-N-(methylsulfonyl)benzamide]
0.45 | CS(=O)(=O)NC(=O)c1cc(F)c(Oc2ccc(Cl)c(C(F)(F)F)c2)cc1F [Example 75, 4-(4-chloro-3-(trifluoromethyl)phenoxy)-2,5-difluoro-N-(methylsulfonyl)benzamide]
> 3 | CS(=O)(=O)NC(=O)c1cc(F)c(Oc2cc(Cl)ccc2Cl)cc1F [Example 105, 4-(2,5-dichlorophenoxy)-2,5-difluoro-N-(methylsulfonyl)benzamide]
0.2 | CCOc1cccc(Oc2cc(F)c(C(=O)NS(C)(=O)=O)cc2Cl)c1 [Example 298, 5-chloro-4-(3-ethoxyphenoxy)-2-fluoro-N-(methylsulfonyl)benzamide]
> 3 | COc1cccc(Oc2cc(F)c(C(=O)NS(C)(=O)=O)cc2F)c1 [Example 134, 2,5-difluoro-4-(3-methoxyphenoxy)-N-(methylsulfonyl)benzamide]
